Tests used:
Type in all cases: cell-based
[1] = test system: Zymoseptoria tritici K6105; test: Efficacy of mixtures of streptimidone and CtmC, liquid culture in PDB, optical density 620 nm; details: for Emax at 1.23 ppm: K6105, Streptimidone 1.23 ppm alone (CtmC 0); for Emax at 3.7 ppm: K6105, Streptimidone 3.70 ppm alone (CtmC 0); for Emax at 11.11 ppm: K6105, Streptimidone 11.11 ppm alone (CtmC 0); for Emax at 33.33 ppm: K6105, Streptimidone 33.33 ppm alone (CtmC 0)
[2] = test system: Zymoseptoria tritici K6420; test: as above
[3] = test system: Gibberella zeae (Fusarium graminearum); test: microbe, parasite or virus in culture; details: read-out: % Efficacy
Microdochium nivale = test: Efficacy of mixtures of streptimidone and CtmC, liquid culture in PDB, optical density 620 nm
[4] = test system: Zymoseptoria tritici K6318; test: as above
[5] = test system: Fusarium Virguliforme K6285; test: as above
[6] = test system: Fusarium Virguliforme K6286; test: as above
[7] = Streptimidone 0.41 ppm alone (CtmC 0)
[8] = Streptimidone 1.23 ppm alone (CtmC 0)
[9] = Streptimidone 3.70 ppm alone (CtmC 0)
[10] = Streptimidone 11.11 ppm alone (CtmC 0)
[11] = Streptimidone 33.33 ppm alone (CtmC 0)
[12] = Streptimidone 0.14 ppm alone (CtmC 0)
[13] = Streptimidone 100 ppm alone (CtmC 0)

SMILES: C=C/C(C)=C/[C@H](C)C(=O)C[C@H](O)CC1CC(=O)NC(=O)C1 [Streptimidone]
- Emax at 0.41 ppm ([1]; K6105, Streptimidone 0.41 ppm alone (CtmC 0), lower sub-table): 7%
- Emax at 1.23 ppm ([1]; lower sub-table): 17%
- Emax at 1.23 ppm ([1]; upper sub-table): 27%
- Emax at 3.7 ppm ([1]; lower sub-table): 32%
- Emax at 3.7 ppm ([1]; upper sub-table): 39%
- Emax at 11.11 ppm ([1]; lower sub-table): 48%
- Emax at 11.11 ppm ([1]; upper sub-table): 59%
- Emax at 33.33 ppm ([1]; lower sub-table): 67%
- Emax at 33.33 ppm ([1]; upper sub-table): 81%
- Emax at 100 ppm ([1]; K6105, Streptimidone 100 ppm alone (CtmC 0), lower sub-table): 83%
- Emax at 0.41 ppm ([2]; K6420, Streptimidone 0.41 ppm alone (CtmC 0)): 7%
- Emax at 1.23 ppm ([2]; K6420, Streptimidone 1.23 ppm alone (CtmC 0)): 17%
- Emax at 3.7 ppm ([2]; K6420, Streptimidone 3.70 ppm alone (CtmC 0)): 32%
- Emax at 11.11 ppm ([2]; K6420, Streptimidone 11.11 ppm alone (CtmC 0)): 48%
- Emax at 33.33 ppm ([2]; K6420, Streptimidone 33.33 ppm alone (CtmC 0)): 67%
- Emax at 100 ppm ([2]; K6420, Streptimidone 100 ppm alone (CtmC 0)): 83%
- Emax at 33.33 ppm [3]: 50%
- Emax at 100 ppm [3]: 63%
- Emax at 0.41 ppm (Microdochium nivale; [7]): 0%
- Emax at 1.23 ppm (Microdochium nivale; [8]): 0%
- Emax at 3.7 ppm (Microdochium nivale; [9]): 5%
- Emax at 11.11 ppm (Microdochium nivale; [10]): 8%
- Emax at 33.33 ppm (Microdochium nivale; [11]): 22%
- Emax at 0.14 ppm [4, 12]: 0%
- Emax at 0.41 ppm [4, 7]: 0%
- Emax at 1.23 ppm [4, 8]: 0%
- Emax at 3.7 ppm [4, 9]: 3%
- Emax at 11.11 ppm [4, 10]: 8%
- Emax at 33.33 ppm [4, 11]: 18%
- Emax at 100 ppm [4, 13]: 44%
- Emax at 0.14 ppm [5, 12]: 10%
- Emax at 0.41 ppm [5, 7]: 21%
- Emax at 1.23 ppm [5, 8]: 13%
- Emax at 3.7 ppm [5, 9]: 18%
- Emax at 11.11 ppm [5, 10]: 18%
- Emax at 33.33 ppm [5, 11]: 26%
- Emax at 100 ppm [5, 13]: 53%
- Emax at 0.14 ppm [6, 12]: 8%
- Emax at 0.41 ppm [6, 7]: 16%
- Emax at 1.23 ppm [6, 8]: 14%
- Emax at 3.7 ppm [6, 9]: 16%
- Emax at 11.11 ppm [6, 10]: 16%
- Emax at 33.33 ppm [6, 11]: 30%
- Emax at 100 ppm [6, 13]: 47%

Source: patent US20240334934A1, “FUNGICIDE MIXTURE” (priority 2021, published 2024)
